According to US8455421B2, “Compositions and methods for the removal of chewing gum residues from substrates” (Expelliere Int Ltd, priority 2008, dated 2013):

Tested on: laccase from Trametes versicolor (LTV)
Test: Compatibility of laccase with ionic liquids (oxidation of catechol to 1,2-benzoquinone)
Type: biochemical
Settings: laccase 25 mg/L, sodium phosphate-citrate buffer 25 mM, pH 4.5, 22° C., 405 nm
Source text: An important consideration in preparing ionic liquids comprising enzymes for use in the methods of the present invention is the activity of the enzyme in the presence of the ionic liquid. The compatibility of enzymes and ionic liquids can be easily determined by the skilled person by standard laboratory techniques. One suitable technique uses high throughput screening of ionic liquids and enzymes using multiple well plates. A standard enzyme-catalysed transformation may be used to analyse the activity of a particular enzyme in the presence of various ionic liquids at various concentrations. One suitable reaction is the oxidation of catechol to 1,2-benzoquinone. The progress of this reaction can be monitored visually by the dark colour of 1,2-benzoquinone and spectrally, for instance using UV-Vis spectrometry. This transformation can be represented by the following reaction scheme, in which laccase is exemplified:
Compatibility of enzymes with ionic liquid compositions was determined by high throughput screening on multiple well plates of various enzymes against various concentrations of ionic liquids in water. The oxidation of catechol to 1,2-benzoquinone was measured in aqueous sodium phosphate-citrate buffer solutions (25 mM) containing laccase (25 mgL^−1) and an ionic liquid, premixed at pH 6.0 for laccase from Agaricus bisporus (LAB) and at pH 4.5 for laccase from Trametes versicolor (LTV). The pH was verified by diluting the final reaction mixture in deionised water and measuring the pH using a pH meter. The rate of 1,2-benzoquinone formation was measured using an Agilent spectrophotometer at 405 nm and 22° C. using an extinction coefficient of 760 M^−1 cm^−1. The activity was measured over a range of ionic liquid concentrations from 0 to 99.4%, since the laccases were not soluble in the pure ionic liquids, but could be dissolved when the ionic liquids were mixed with 0.6% of buffer solution containing the enzyme.

| SMILES | Concentration of ionic liquid in water that inactivates Laccase (LTV) [%] |
| --- | --- |
| CCOS(=O)(=O)[O-].C[N+](C)(C)CCCO [[N1,1,1,3OH]^+[EtOSO3]^−] | 30 |
| CCCC[N+](C)(C)CC.CCOS(=O)(=O)[O-] [[N4,2,1,1]^+[EtOSO3]^−] | 70 |
| CCCCC(CC)COC(=O)CC(C(=O)OCC(CC)CCCC)S(=O)(=O)[O-].CCn1cc[n+](C)c1 (stereo not drawn) [[emim][docusate]] | 90 |
| CC(O)C(=O)[O-].CCCCn1cc[n+](C)c1 [[bmim]^+[CH3CH(OH)CO2]^−] | 90 |
| CCCCCCCC[N+](C)(C)CCCC.O=[N+]([O-])[O-] [[N8,4,1,1]^+[NO3]^−] | 90 |
| CCOS(=O)(=O)[O-].CC[N+](C)(C)CCO [[N2,1,1,2OH]^+[EtOSO3]^−] | 30 |
| CCCCC(CC)COC(=O)CC(C(=O)OCC(CC)CCCC)S(=O)(=O)[O-].CCCC[N+]1(C)CCCC1 (stereo not drawn) [[bmpyr]^+[docusate]^−] | 90 |
| CCOS(=O)(=O)[O-].CCn1cc[n+](C)c1 [[emim]^+[EtOSO3]^−] | 30 |
| CCCCC(CC)COC(=O)CC(C(=O)OCC(CC)CCCC)S(=O)(=O)[O-].CCCCn1cc[n+](C)c1 (stereo not drawn) [[bmim][docusate], 1-methyl-3-butylimidazolium docusate] | 90 |
